From patent US20090226392A1, “Phosphate-Binding Polymers for Oral Administration” (priority 1993, published 2009)

Assay: Phosphate binding test: polymer stirred in phosphate containing solution at pH 7 for 3 hours
Protocol: Candidate polymers were tested by stirring them in a phosphate containing solution at pH 7 for 3 hours. The solution was designed to mimic the conditions present in the small intestine.
The pH was adjusted to pH 7, once at the start of the test and again at the end of the test, using either aqueous NaOH or HCl. After 3 hours the polymer was filtered off and the residual phosphate concentration in the test solution was determined spectrophotometrically. The difference between the initial phosphate concentration and the final concentration was used to determine the amount of phosphate bound to the polymer.

## [Ca+2].[Cl-].[Cl-] [Calcium Chloride]
pH 7
  Phosphate Bound: 4.0 meq/g

## CC(O)C(=O)[O-].CC(O)C(=O)[O-].[Ca+2] (centres unmarked) [Calcium Lactate]
Table 2, other materials, pH 7, 3 hours, residual solution phosphate ~5 mM
  Phosphate Bound: 2.4 meq/g
